{"source": "patent US20240398773A1", "about": "“COMPOSITIONS COMPRISING OTESECONAZOLE” (Mycovia Pharmaceuticals, Inc., priority 2021, published 2024)", "key": {"[1]": {"system": "recurrent VVC episode", "test": "Study CL-006 culture-verified recurrent VVC episodes", "format": "in vivo, human", "conditions": "150 mg, 3 months dose group (150 mg QD 7 days, then 150 mg QW 11 weeks)", "text": "The dosing regimen yielded oteseconazole plasma concentrations that provided marked efficacy across all dose groups, with no differences in the extent of efficacy noted."}, "[2]": {"test": "Study CL-005 in subjects with onychomycosis, plasma PK", "format": "in vivo", "conditions": "human; for AUC(0-t): read-out: AUC0-8; for concentration at 12 weeks: after 12 weeks; for concentration at 12 weeks / concentration at 24 weeks: read-out: plasma exposure; for concentration at 24 weeks: after 24 weeks", "method": "Within each treatment group, oteseconazole plasma exposures increased throughout the dosing regimen from Day 1 to Week 12 or 24. […] Mean Cmax and AUC0-8 values after the Day 14 dose (completion of the loading dose phase of the study) were similar for the 300 mg 12-week and 300 mg 24-week treatment groups, and for the 600 mg 12-week and 600 mg 24-week treatment groups, as expected."}, "[3]": {"test": "Study CL-001 single-dose escalation in healthy subjects, plasma PK", "format": "in vivo, human", "conditions": "for Tmax / Vd/F / half-life / Cmax / AUC(0-inf): both sexes, human, plasma", "method": "Study Oteseconazole CL-001 (hereafter referenced as “CL-001”) was a single-center, Phase 1, double-blind, randomized, placebo-controlled, dose-escalating study in healthy adult subjects.\nSixty-four subjects (43 males and 21 females) between 18 and 55 years of age were enrolled in 8 dose groups. Within each dose group, 6 subjects received oteseconazole and 2 subjects received placebo. In the first 7 cohorts, escalating single oral doses (5, 10, 20, 40, 80, 160, or 320 mg) were administered in the fasted state using 2.5, 20, or 60 mg capsules of oteseconazole or matching placebo. An eighth cohort received a single 320 mg oral dose of oteseconazole or matching placebo after ingesting a high-fat breakfast. Subjects in Cohorts 1 through 6 were followed for 14 days for safety and PK assessments. Visits on Days 28 and 42 were added for Cohorts 7 and 8. Dose escalation proceeded only after safety and PK of the previous dose were determined.\nThe PK analysis was based on concentration-time data from 36 subjects who received active oteseconazole at doses between 20 mg and 320 mg. The majority of the oteseconazole plasma concentrations in Cohort 1 (5 mg) and Cohort 2 (10 mg) were below the limit of quantification (<20 ng/mL); therefore, no PK analysis could be conducted on these subjects."}, "[4]": {"conditions": "300 mg, Day 14, Low Dose (300 mg), 12 weeks"}, "[5]": {"conditions": "300 mg, Day 14, Low Dose (300 mg), 24 weeks"}, "[6]": {"conditions": "600 mg, Day 14, High Dose (600 mg), 12 weeks"}, "[7]": {"conditions": "600 mg, Day 14, High Dose (600 mg), 24 weeks"}, "[8]": {"conditions": "Cohort 4, single oral 40 mg, fasted, mean"}, "[9]": {"conditions": "Cohort 5, single oral 80 mg, fasted, mean"}, "[10]": {"conditions": "Cohort 6, single oral 160 mg, fasted, mean"}, "[11]": {"conditions": "Cohort 7, single oral 320 mg, Fasted, mean"}, "[12]": {"conditions": "Cohort 8, single oral 320 mg, Fed (high-fat breakfast), mean"}, "[13]": {"conditions": "po, 40 mg, Cohort 4, single oral 40 mg, fasted, mean"}, "[14]": {"conditions": "po, 80 mg, Cohort 5, single oral 80 mg, fasted, mean"}, "[15]": {"conditions": "po, 160 mg, Cohort 6, single oral 160 mg, fasted, mean"}, "[16]": {"conditions": "po, 320 mg, Cohort 7, single oral 320 mg, Fasted, mean"}, "[17]": {"conditions": "po, 320 mg, Cohort 8, single oral 320 mg, Fed (high-fat breakfast), mean"}}, "note": "Like-named read-outs stand apart in the source and are kept apart here. Marks after values point to notes of the source that are not given here."}
{"compound": "O[C@@](Cn1cnnn1)(c1ccc(F)cc1F)C(F)(F)c1ccc(-c2ccc(OCC(F)(F)F)cc2)cn1", "note": "[Oteseconazole, oteseconazole]", "values": [{"measurement": "subjects with a culture-verified recurrent VVC episode by Week 48", "setting": "[1]", "value": 4.8, "unit": "%"}, {"measurement": "Cmax", "setting": "[2]; [4]", "value": 5120, "unit": "ng/mL"}, {"measurement": "AUC(0-t)", "setting": "[2]; [4]", "value": 36700, "unit": "ng·h/mL"}, {"measurement": "Cmax", "setting": "[2]; [5]", "value": 5510, "unit": "ng/mL"}, {"measurement": "AUC(0-t)", "setting": "[2]; [5]", "value": 40100, "unit": "ng·h/mL"}, {"measurement": "Cmax", "setting": "[2]; [6]", "value": 8290, "unit": "ng/mL"}, {"measurement": "AUC(0-t)", "setting": "[2]; [6]", "value": 59700, "unit": "ng·h/mL"}, {"measurement": "Cmax", "setting": "[2]; [7]", "value": 8390, "unit": "ng/mL"}, {"measurement": "AUC(0-t)", "setting": "[2]; [7]", "value": 61600, "unit": "ng·h/mL"}, {"measurement": "Tmax", "setting": "[2]; Day 14, High Dose (600 mg), 12 weeks", "value": 5, "unit": "h"}, {"measurement": "Tmax", "setting": "[2]; Day 14, Low Dose (300 mg), 12 weeks", "value": 5, "unit": "h"}, {"measurement": "concentration at 12 weeks", "setting": "[2]; 300 mg 12-week treatment group", "value": 6750, "unit": "ng/mL"}, {"measurement": "concentration at 12 weeks", "setting": "[2]; 600 mg 12-week treatment group", "value": 12300, "unit": "ng/mL"}, {"measurement": "concentration at 24 weeks", "setting": "[2]; 300 mg 24-week treatment group", "value": 9230, "unit": "ng/mL"}, {"measurement": "concentration at 24 weeks", "setting": "[2]; 600 mg 24-week treatment group", "value": 15600, "unit": "ng/mL"}, {"measurement": "plasma concentrations with standard high-fat meal versus fasted state", "setting": "[3]; 320 mg, Cohort 8 versus Cohort 7", "value": "higher plasma concentrations"}, {"measurement": "plasma concentrations (majority below the limit of quantification)", "setting": "[3]; Cohort 1 (5 mg) and Cohort 2 (10 mg)", "value": "< 20", "unit": "ng/mL"}, {"measurement": "Tlag", "setting": "[3]; Cohort 3, single oral 20 mg, fasted, mean", "value": 1.84, "unit": "h"}, {"measurement": "CL/F", "setting": "[3]; Cohort 3, single oral 20 mg, fasted, mean, N = 5", "value": "1.39 ^a L/h"}, {"measurement": "CL/F", "setting": "[3]; [8]", "value": 1.30, "unit": "L/h"}, {"measurement": "Tlag", "setting": "[3]; [8]", "value": 1.58, "unit": "h"}, {"measurement": "CL/F", "setting": "[3]; [9]", "value": 1.08, "unit": "L/h"}, {"measurement": "Tlag", "setting": "[3]; [9]", "value": 1.17, "unit": "h"}, {"measurement": "CL/F", "setting": "[3]; [10]", "value": 1.67, "unit": "L/h"}, {"measurement": "Tlag", "setting": "[3]; [10]", "value": 0.75, "unit": "h"}, {"measurement": "CL/F", "setting": "[3]; [11]", "value": 1.35, "unit": "L/h"}, {"measurement": "Tlag", "setting": "[3]; [11]", "value": 0.67, "unit": "h"}, {"measurement": "CL/F", "setting": "[3]; [12]", "value": 0.406, "unit": "L/h"}, {"measurement": "Tlag", "setting": "[3]; [12]", "value": 1.25, "unit": "h"}, {"measurement": "Tmax", "setting": "[3]; oral, 4 hours at 80 mg to 10 hours at 40 mg, read-out: Median Tmax, range over doses", "value": "4 to 10", "unit": "h"}, {"measurement": "Vd/F", "setting": "[3]; oral, all cohorts, read-out: Vz/F, range of cohort averages", "value": "696 to 1650", "unit": "L"}, {"measurement": "half-life", "setting": "[3]; po, 20 mg, Cohort 3, single oral 20 mg, fasted, N = 5", "value": 393, "unit": "h"}, {"measurement": "Cmax", "setting": "[3]; po, 20 mg, Cohort 3, single oral 20 mg, fasted, mean", "value": 44.7, "unit": "ng/mL"}, {"measurement": "AUC(0-inf)", "setting": "[3]; po, 20 mg, Cohort 3, single oral 20 mg, fasted, mean, N = 5", "value": 16100, "unit": "ng·h/mL"}, {"measurement": "Vd/F", "setting": "[3]; po, 20 mg, Cohort 3, single oral 20 mg, fasted, mean, N = 5, read-out: Vz/F", "value": 696, "unit": "L"}, {"measurement": "Tmax", "setting": "[3]; po, 20 mg, Cohort 3, single oral 20 mg, fasted, median, read-out: Tmax", "value": 5.03, "unit": "h"}, {"measurement": "half-life", "setting": "[3]; po, 40 mg, Cohort 4, single oral 40 mg, fasted", "value": 548, "unit": "h"}, {"measurement": "AUC(0-inf)", "setting": "[3]; [13]", "value": 35000, "unit": "ng·h/mL"}, {"measurement": "Cmax", "setting": "[3]; [13]", "value": 79.7, "unit": "ng/mL"}, {"measurement": "Vd/F", "setting": "[3]; po, 40 mg, Cohort 4, single oral 40 mg, fasted, mean, read-out: Vz/F", "value": 939, "unit": "L"}, {"measurement": "Tmax", "setting": "[3]; po, 40 mg, Cohort 4, single oral 40 mg, fasted, median, read-out: Tmax", "value": 10, "unit": "h"}, {"measurement": "half-life", "setting": "[3]; po, 80 mg, Cohort 5, single oral 80 mg, fasted", "value": 536, "unit": "h"}, {"measurement": "AUC(0-inf)", "setting": "[3]; [14]", "value": 84600, "unit": "ng·h/mL"}, {"measurement": "Cmax", "setting": "[3]; [14]", "value": 165, "unit": "ng/mL"}, {"measurement": "Vd/F", "setting": "[3]; po, 80 mg, Cohort 5, single oral 80 mg, fasted, mean, read-out: Vz/F", "value": 761, "unit": "L"}, {"measurement": "Tmax", "setting": "[3]; po, 80 mg, Cohort 5, single oral 80 mg, fasted, median, read-out: Tmax", "value": 4.01, "unit": "h"}, {"measurement": "half-life", "setting": "[3]; po, 160 mg, Cohort 6, single oral 160 mg, fasted", "value": 618, "unit": "h"}, {"measurement": "AUC(0-inf)", "setting": "[3]; [15]", "value": 109000, "unit": "ng·h/mL"}, {"measurement": "Cmax", "setting": "[3]; [15]", "value": 180, "unit": "ng/mL"}, {"measurement": "Vd/F", "setting": "[3]; po, 160 mg, Cohort 6, single oral 160 mg, fasted, mean, read-out: Vz/F", "value": 1400, "unit": "L"}, {"measurement": "Tmax", "setting": "[3]; po, 160 mg, Cohort 6, single oral 160 mg, fasted, median, read-out: Tmax", "value": 6, "unit": "h"}, {"measurement": "half-life", "setting": "[3]; po, 320 mg, Cohort 7, single oral 320 mg, Fasted", "value": 873, "unit": "h"}, {"measurement": "AUC(0-inf)", "setting": "[3]; [16]", "value": 242000, "unit": "ng·h/mL"}, {"measurement": "Cmax", "setting": "[3]; [16]", "value": 338, "unit": "ng/mL"}, {"measurement": "Vd/F", "setting": "[3]; po, 320 mg, Cohort 7, single oral 320 mg, Fasted, mean, read-out: Vz/F", "value": 1650, "unit": "L"}, {"measurement": "Tmax", "setting": "[3]; po, 320 mg, Cohort 7, single oral 320 mg, Fasted, median, read-out: Tmax", "value": 5, "unit": "h"}, {"measurement": "half-life", "setting": "[3]; po, 320 mg, Cohort 8, single oral 320 mg, Fed (high-fat breakfast)", "value": 1470, "unit": "h"}, {"measurement": "AUC(0-inf)", "setting": "[3]; [17]", "value": 953000, "unit": "ng·h/mL"}, {"measurement": "Cmax", "setting": "[3]; [17]", "value": 988, "unit": "ng/mL"}, {"measurement": "Vd/F", "setting": "[3]; po, 320 mg, Cohort 8, single oral 320 mg, Fed (high-fat breakfast), mean, read-out: Vz/F", "value": 741, "unit": "L"}, {"measurement": "Tmax", "setting": "[3]; po, 320 mg, Cohort 8, single oral 320 mg, Fed (high-fat breakfast), median, read-out: Tmax", "value": 6, "unit": "h"}]}
